The record followed here is article PMC4589371, “Molecular Binding Mechanism of TtgR Repressor to Antibiotics and Antimicrobials” (PLoS ONE, 2015).

Series [1] has as its target T1, TtgR (TtgR^WT) (Pseudomonas putida, UniProt Q9AIU0).
T1 construct: homodimer
Briefly: isothermal titration calorimetry, one set of sites. Type of series: binding.

Series [2] has as its target TtgR (TtgR^WT) (Pseudomonas putida, UniProt Q9AIU0, N110A). Briefly: biochemical. The text has this:
(§1) isothermal titration calorimetry, one set of sites on TtgR (TtgR^WT)

In series [3] the target is TtgR (TtgR^WT) (Pseudomonas putida, UniProt Q9AIU0, E78A). The series is described as follows: biochemical.
Description: as §1

The target in series [4] is TtgR (TtgR^WT) (Pseudomonas putida, UniProt Q9AIU0, H114A). The series is described as follows: biochemical.
Description: as §1

In series [5] the test system is TtgR N110A (Pseudomonas putida DOT-T1E). Briefly: EMSA. The note with it: 5 uM phloretin; EMSA: 10 mM Tris-HCl pH 7.0, 250 mM NaCl, 10 mM Mg acetate, 10 mM KCl, 5% glycerol, 0.1 mM EDTA, 5 mM DTT, 20 ug/ml poly(dI-dC), 200 ug/ml BSA; 10 min at 30 C ….
Series [6] deals with TtgR E78A (Pseudomonas putida DOT-T1E). The series is described as follows: EMSA. The note with it: 5 uM naringenin; EMSA: 10 mM Tris-HCl pH 7.0, 250 mM NaCl, 10 mM Mg acetate, 10 mM KCl, 5% glycerol, 0.1 mM EDTA, 5 mM DTT, 20 ug/ml poly(dI-dC), 200 ug/ml BSA; 10 min at 30 C ….
Series [7] deals with TtgR H114A (Pseudomonas putida DOT-T1E). Briefly: EMSA. The note with it: 5 uM naringenin; EMSA: 10 mM Tris-HCl pH 7.0, 250 mM NaCl, 10 mM Mg acetate, 10 mM KCl, 5% glycerol, 0.1 mM EDTA, 5 mM DTT, 20 ug/ml poly(dI-dC), 200 ug/ml BSA; 10 min at 30 C ….

On to `O=C(N[C@H](CO)[C@H](O)c1ccc([N+](=O)[O-])cc1)C(Cl)Cl` [chloramphenicol], for which the Kd at TtgR (TtgR^WT) [1] turned out to be 5.6 ± 0.4 µM; on TtgR (TtgR^WT) [2] it was 15.6 ± 2 µM; on TtgR (TtgR^WT) [3] it was 18.5 ± 1 µM; on TtgR (TtgR^WT) [4], 8.5 ± 0.5 µM.
Turning to `O=C(CCc1ccc(O)cc1)c1c(O)cc(O)cc1O` [phloretin], the Kd on TtgR (TtgR^WT) [1] was 1.5 ± 0.2 µM; at TtgR (TtgR^WT) [2] it was 1 ± 0.1 µM; on TtgR (TtgR^WT) [3], 0.7 ± 0.1 µM; at TtgR (TtgR^WT) [4] it was 1.3 ± 0.1 µM.
Regarding “ttgABC-ttgR intergenic region (operator), 189 bp”, the binding signal (% DNA dissociated) in series [5] stood at 66. Moreover, the binding signal (% DNA released) in series [6] and in series [7] was 30 in each case.
